# Data published in ChEMBL document CHEMBL5620414, “Discovery of YK-029A, a novel mutant EGFR inhibitor targeting both T790 M and exon 20 insertion mutations, as a treatment for NSCLC” (Eur J Med Chem, 2023).
# Assays:
# [1] = biological target: Epidermal growth factor receptor (Homo sapiens, UniProt P00533); test: Inhibition of wildtype EGFR (unknown origin) incubated for 60 mins in presence of ATP by biochemical enzymatic assay
# [2] = biological target: Epidermal growth factor receptor (Homo sapiens, UniProt P00533, L858R/T790M); test: Inhibition of GST-tagged recombinant human EGFR T790M/L858R mutant (668 to 1210 residues) expressed in Insect cells incubated for 60 mins in presence of ATP by biochemical enzymatic assay; parameters: species or system Insect cell
# A-431 = test: Antiproliferative activity against human A-431 cells harboring wildtype EGFR assessed as cell growth inhibition incubated for 72 hrs by CellTiter Glo assay; format: functional
# BaF3 [3] = test: Antiproliferative activity against mouse BaF3 cells harboring EGFR D770_N771ins_SVD mutant assessed as cell growth inhibition incubated for 72 hrs by CellTiter Glo assay; format: functional
# PC-9 = test: Antiproliferative activity against human PC-9 cells harboring EGFR del19 mutant assessed as cell growth inhibition incubated for 72 hrs by CellTiter Glo assay; format: functional
# HCC827 = test: Antiproliferative activity against human HCC827 cells harboring EGFR del19 mutant assessed as cell growth inhibition incubated for 72 hrs by CellTiter Glo assay; format: functional
# NCI-H1975 = test: Antiproliferative activity against human NCI-H1975 cells harboring EGFR L858R/T790M mutant assessed as cell growth inhibition incubated for 72 hrs by CellTiter Glo assay; format: functional
# BaF3 [4] = test: Antiproliferative activity against mouse BaF3 cells harboring EGFR H773_V774ins_NPH mutant assessed as cell growth inhibition incubated for 72 hrs by CellTiter Glo assay; format: functional
# BaF3 [5] = test: Antiproliferative activity against mouse BaF3 cells harboring EGFR V769_D770ins_ASV mutant assessed as cell growth inhibition incubated for 72 hrs by CellTiter Glo assay; format: functional
# BaF3 [6] = test: Antiproliferative activity against mouse BaF3 cells harboring EGFR A763_Y764ins_FQEA mutant assessed as cell growth inhibition incubated for 72 hrs by CellTiter Glo assay; format: functional
# [7] = Toxicity in rat at 80 mg/kg, po assessed as death administered for 28 days; format: organism-based; settings: in vivo, 672 h, time 28 day
# Chain of Epidermal growth factor receptor (Homo sapiens, UniProt P00533) (P00533 whole entry, the tested form may be a part): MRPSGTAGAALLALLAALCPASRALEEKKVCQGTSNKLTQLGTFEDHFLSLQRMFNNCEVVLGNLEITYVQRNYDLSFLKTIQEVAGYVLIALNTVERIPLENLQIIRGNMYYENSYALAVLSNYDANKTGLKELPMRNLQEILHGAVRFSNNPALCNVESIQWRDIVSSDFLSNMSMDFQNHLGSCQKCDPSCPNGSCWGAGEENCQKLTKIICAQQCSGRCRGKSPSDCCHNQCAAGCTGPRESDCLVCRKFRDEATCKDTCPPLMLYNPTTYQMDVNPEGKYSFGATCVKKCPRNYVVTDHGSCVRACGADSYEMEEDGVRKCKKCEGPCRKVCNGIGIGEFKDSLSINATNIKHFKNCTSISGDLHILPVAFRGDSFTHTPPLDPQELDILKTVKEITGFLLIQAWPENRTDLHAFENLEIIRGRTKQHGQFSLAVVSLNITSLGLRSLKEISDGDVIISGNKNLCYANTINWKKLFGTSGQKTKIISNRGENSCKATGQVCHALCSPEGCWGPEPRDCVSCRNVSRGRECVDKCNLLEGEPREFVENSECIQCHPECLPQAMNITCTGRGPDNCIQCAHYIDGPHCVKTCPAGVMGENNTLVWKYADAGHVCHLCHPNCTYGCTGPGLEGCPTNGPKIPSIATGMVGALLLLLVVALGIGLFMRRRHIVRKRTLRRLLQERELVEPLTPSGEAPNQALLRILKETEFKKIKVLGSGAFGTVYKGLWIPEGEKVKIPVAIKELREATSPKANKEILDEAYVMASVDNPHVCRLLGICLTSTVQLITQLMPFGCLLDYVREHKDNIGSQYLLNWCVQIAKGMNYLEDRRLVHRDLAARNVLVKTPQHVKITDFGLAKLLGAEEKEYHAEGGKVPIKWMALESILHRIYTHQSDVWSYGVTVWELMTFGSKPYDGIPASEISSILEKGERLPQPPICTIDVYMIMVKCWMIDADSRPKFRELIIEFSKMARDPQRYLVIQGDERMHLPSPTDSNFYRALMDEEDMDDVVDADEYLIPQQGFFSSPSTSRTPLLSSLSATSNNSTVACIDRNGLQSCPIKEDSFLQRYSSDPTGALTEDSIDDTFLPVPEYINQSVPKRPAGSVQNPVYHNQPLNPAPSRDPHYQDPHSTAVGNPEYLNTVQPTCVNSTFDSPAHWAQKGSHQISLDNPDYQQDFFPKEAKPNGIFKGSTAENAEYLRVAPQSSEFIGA
smiles,measurement,setting,value
COc1cc(N(C)CCN(C)C)c(NC(=O)/C=C/CN(C)C)cc1Nc1nccc(-c2ncc3c(C)cccn23)n1,IC50,[1],50.2 nM
same,IC50,[2],1.27 nM
C=CC(=O)Nc1cc(Nc2ncc(C(=O)OC(C)C)c(-c3cn(C)c4ccccc34)n2)c(OC)cc1N(C)CCN(C)C [MOBOCERTINIB],GI50,A-431,26 nM
same,GI50,"BaF3 [3]; Mus musculus, BaF3",9 nM
C=CC(=O)Nc1cc(Nc2nccc(-c3ncc4c(C)cccn34)n2)c(OC)cc1N(C)CCN(C)C,GI50,A-431,620 nM
same,GI50,"PC-9; Homo sapiens, PC-9",4.6 nM
same,GI50,"HCC827; Homo sapiens, HCC827",6.2 nM
same,GI50,"NCI-H1975; Homo sapiens, NCI-H1975",29 nM
C=CC(=O)Nc1cc(Nc2nccc(-c3cn(C)c4ccccc34)n2)c(OC)cc1N(C)CCN(C)C [OSIMERTINIB],GI50,PC-9,6.7 nM
same,GI50,HCC827,4.5 nM
same,GI50,BaF3 [4],376 nM
same,GI50,BaF3 [3],179 nM
same,GI50,BaF3 [5],299 nM
same,GI50,BaF3 [6],14 nM
same,Activity,[7],Toxic
